The subject of this assay is P. falciparum 3D7 growth, pLDH absorbance. Description: blood-stage malaria parasite growth potency – strain 3D7, dose response (AID 2305).
Compound `O=C(Nc1nc2cc(S(=O)(=O)NCc3ccc(Cl)c(Cl)c3)ccc2n1CCCN1CCCC1)c1ccc(Cl)cc1` came in with an IC50 of 940 nM.

`COc1ccc(NC(=O)CCNc2cc(C)nc(NCc3ccccc3C)n2)cc1` came in with an IC50 of 1070 nM.

In turn, `Cc1ccc(NC(=O)c2ccc(Cl)cc2)cc1-c1ccc(C(=O)Nc2ccncc2)cc1` returned an IC50 of 780 nM.

`Cc1[nH]c(C)c(C2CCC(c3ccc(Cl)cc3)CC2)c(=O)c1Cl` (configuration not stated) had an IC50 of 50 nM.

In the case of `Oc1cccc(Nc2ccnc3cc(-c4ccncc4)ccc23)c1`, the IC50 amounted to 1050 nM.

Take `O=C(Nc1ccc(C(=O)N(Cc2ccc3c(c2)OCO3)C2CCCC2)cc1)c1cccs1`: the IC50 turned out to be 650 nM.

Take `O=C(CCCCCNC(=O)c1ccc(O)c(-c2cccc(C(F)(F)F)c2)c1)NCCN1CCCCC1`: the IC50 amounted to 890 nM.

On to `COC(=O)C(=C(C)C)N1C(=O)[C@@H](NC(=O)OCc2ccccc2)[C@H]1SS[C@@H]1[C@H](NC(=O)OCc2ccccc2)C(=O)N1C(C(=O)OC)=C(C)C`, for which the IC50 worked out at 430 nM.

`Nc1ccnc(N2CCC(CCOc3cc(C(F)(F)F)nc4c(C(F)(F)F)cccc34)CC2)c1` displayed an IC50 of 790 nM.

As to `CCCN(Cc1nnc(-c2ccco2)o1)C(=O)C1CCN(c2ncc(C(F)(F)F)cc2Cl)CC1`, the IC50 was 690 nM.

`O=C(c1cccc(-c2cccc(-c3nc4ccc(F)cc4[nH]3)c2)c1)N1CCCCC1CN1CCC(O)C1` (configuration not stated) had an IC50 of 880 nM.

Consider `CCN(CC)CCN(Cc1ccc(-c2ccc(C(F)(F)F)cc2)cc1)C(=O)Cn1c(CCc2cc(F)c(F)c(F)c2)nc(=O)c2ccccc21`, for which the IC50 is 830 nM.

`CC=Cc1cc(Cc2cnc(N)nc2N)cc(CCC)c1OC`: the IC50 worked out at 780 nM.

Consider `CCCCN1CCN(CCCNc2c3ccccc3nc3ccccc23)CC1`, for which the IC50 was 510 nM.

For `Cc1cc(NCCc2ccccc2)nc(/N=C(\N)Nc2cccc(F)c2)n1`, the IC50 stood at 900 nM.

`CN1CCN(CCCN(Cc2csc(-c3ccc(CNCc4ccccc4)cc3)n2)S(=O)(=O)c2ccc(F)cc2)CC1` gave an IC50 of 860 nM.

Compound `Cn1cncc1C(=O)Nc1cccc(-c2cccc(-c3nc4ccc(F)cc4[nH]3)c2)c1` had an IC50 of 490 nM.

The compound `CC(C)c1ccc(-c2nc3ncc(Cl)cc3[nH]2)cc1` displayed an IC50 of 860 nM.

Consider `CN(C)CCOc1cc(O)c2c(c1)OC(C)(C)C=C2c1cccs1`, for which the IC50 amounted to 290 nM.

Take `Cn1cc(Br)c(-c2cccc(Nc3ccnc4cc(-c5nccs5)ccc34)c2)n1`: the IC50 turned out to be 980 nM.

Take `COc1cccc(C(O)CNc2ccnc(Nc3ccc(Cl)cc3)n2)c1` (configuration not stated): the IC50 was 610 nM.

Turning to `O=C1COc2ccc(CNC3CCC(O)(CCc4ccnc5cc6c(cc45)OCCO6)CC3)nc2N1` (configuration not stated), the IC50 was 930 nM.

`CS(=O)(=O)c1ccc(-c2cc(C(F)(F)F)nc(N[C@@H]3CCCC[C@H]3OCc3ccccc3)n2)cc1`: the IC50 is 60 nM.

`CC(CN1CCN(C)CC1)C(=O)Nc1ccc(-c2ccc(-c3nc4ccc(F)cc4[nH]3)cc2)cc1` (configuration not stated) registered an IC50 of 790 nM.

For `CC(C)c1ccc(NC(=O)c2ccc(CN3CCCN(Cc4cccc(Cl)c4)CC3)cc2)cc1`, the IC50 was found to be 1160 nM.

Compound `Cc1ccc(-n2c(=O)c3c(n4c(SC(C)C)nnc24)-c2ccccc2CC32CCCCC2)cc1` had an IC50 of 950 nM.

Compound `COc1ccc2nccc([C@@H](O)CN3CCC(NCc4cc5cccc6c5n(c4=O)CCC6)CC3)c2c1` came in with an IC50 of 860 nM.

`O=C(NC(Nc1ccc([N+](=O)[O-])cc1)C(Cl)(Cl)Cl)c1ccc(Cl)cc1` (configuration not stated) yielded an IC50 of 780 nM.

For the compound `C=C(NC(=O)C1CCCCC1)C(=O)OC`, the IC50 worked out at 850 nM.

The compound `CCCc1cc(OC)c(CC2c3cc(O)c(C)cc3CCN2C)cc1OC` (configuration not stated) registered an IC50 of 700 nM.

On to `c1ccc(C(c2ccccc2)N2CCC(NCc3ccc(OCCCN4CCCCC4)cc3)CC2)cc1`, for which the IC50 worked out at 560 nM.

In turn, `O=C(NCC1CCC(C(=O)NCCN2CCCCC2)CC1)c1ccc(O)c(-c2ccc(Cl)c(Cl)c2)c1` (configuration not stated) had an IC50 of 1170 nM.

Turning to `COc1ccc(CCN(C)CCOc2ccc(NC(=O)COc3ccc4sc5ccccc5c(=O)c4c3)cc2)cc1OC`, the IC50 amounted to 1100 nM.

Compound `NCCCNc1ccc(-c2ccc(NC(=O)Nc3cc(C(F)(F)F)ccc3F)cc2)cn1` had an IC50 of 840 nM.

Regarding `COc1cc(F)c2ncc(F)c([C@@H](O)CN3CCC(NCc4cc5c(cn4)OCCO5)CC3)c2c1`, the IC50 worked out at 480 nM.

As to `OCc1ccc2nc3c(cc2c1)-c1cccc2cccc-3c12`, the IC50 came out at 660 nM.

`Fc1ccc2cc(C=Cc3ccncc3)[nH]c2c1` yielded an IC50 of 620 nM.

`C=CCOc1ccc(CNC2CCN(Cc3ccccc3)CC2)cc1Br`: the IC50 amounted to 1420 nM.

Regarding `CN(CCN(C)C(=O)NCc1ccccc1)C(=O)NCc1ccccc1`, the IC50 was 930 nM.

Consider `COc1ccc2nc(NC3=NC4(c5ccccc5)N=C(Nc5nc6ccc(OC)cc6[nH]5)NC4(c4ccccc4)N3)[nH]c2c1` (configuration not stated), for which the IC50 was determined as 200 nM.

On to `COc1ccccc1NC(=O)Nc1cccc(-c2ccc(-c3nc4c(C)cccc4[nH]3)s2)c1`, for which the IC50 is 580 nM.

In the case of `Cc1c(C)c2c(c(C)c1O)CCC(C)(CCC(=O)O)O2` (configuration not stated), the IC50 was found to be 690 nM.

`Cc1cc2c(cc1C(F)(F)F)N(C(=O)Nc1ccc(OCCN(C)C)c(C(F)(F)F)c1)CC2` returned an IC50 of 910 nM.

The compound `CCNc1cc(C(=O)N[C@@H](Cc2ccccc2)[C@H](O)CNC2CCC(F)(F)CC2)c(F)c(N2CCCCS2(=O)=O)c1` registered an IC50 of 210 nM.

`CC(C)C[C@H](Nc1ccnc(NCC2CCCCC2)n1)C(=O)NCCc1ccccc1` gave an IC50 of 750 nM.

Regarding `COc1ccc2nccc([C@H](O)CN3CCC(NCc4cc(C)c5c(c4)OCCO5)CC3)c2n1`, the IC50 stood at 900 nM.

As to `COc1ccccc1CNC(=O)c1cc(OC)c(OC)cc1NC(=O)c1cccs1`, the IC50 stood at 1440 nM.

`NC(N)=NN=CC(=O)Nc1ccc(Cl)c(Cl)c1` showed an IC50 of 740 nM.

As for `Cc1cccc(-n2c(Nc3ccc(C)c(Cl)c3)nc3ccc(S(=O)(=O)NC(C)C(C)C)cc32)c1` (configuration not stated), the IC50 amounted to 650 nM.

For `O=C(Nc1cccc(-c2cccc(CN3CCCC3)c2)c1)c1ccc(Cl)cc1`, the IC50 turned out to be 680 nM.

The compound `O=C(Nc1cccc(-c2ccc(CN3CCC(O)CC3)cc2)c1)c1cccc(Cl)c1` had an IC50 of 760 nM.

`COc1ccc2ncc(F)c(CCN3CCC(NCc4cc(OC)c5c(c4)OCCO5)CC3)c2n1` yielded an IC50 of 570 nM.

The compound `Oc1ccc(OCc2ccccn2)cc1` yielded an IC50 of 980 nM.

As for `Cc1ccc(C)c(-n2c(SCC(=O)Nc3ccc(C(N)=O)cc3)nnc2-c2cccc(Cl)c2)c1`, the IC50 turned out to be 840 nM.

The compound `COc1ccc(Nc2cc(C)c3cc(NC(=O)c4ccncc4)ccc3n2)cc1` gave an IC50 of 910 nM.

Compound `CC1(CCCCN2CCC(Cc3ccccc3)CC2)C(=O)Nc2ccccc21` (configuration not stated) showed an IC50 of 860 nM.

Compound `c1ccc(-c2ccc3c(Nc4ccc5[nH]ccc5c4)ccnc3c2)nc1` displayed an IC50 of 940 nM.

`CCN(CC)CCN(Cc1ccc(-c2ccc(C(F)(F)F)cc2)cc1)C(=O)Cn1c(CCc2cc(F)c(F)cc2F)nc(=O)c2ccccc21` gave an IC50 of 720 nM.

Regarding `Cc1cc(O)c(-c2cc(C(=O)Nc3cccnc3)[nH]n2)cc1C`, the IC50 came out at 770 nM.

Take `COc1ccc2ncc(C#N)c(CCN3[C@@H]4CC[C@H]3CC(NCc3ccc5c(n3)NC(=O)CS5)C4)c2c1` (some centres not stated): the IC50 stood at 810 nM.

In turn, `O=c1n(CC2CCCCC2)c2cc(Cl)cc(OCCNc3ccncc3)c2n1CC1CCCCC1` yielded an IC50 of 590 nM.

Turning to `COc1ccc(NC(=O)[C@H](Cc2ccccc2)Nc2cc(C)nc(NCCOc3ccccc3)n2)cc1`, the IC50 worked out at 1070 nM.

For orientation: IC50 means the concentration that inhibits the measured activity by half.
